# According to PubChem BioAssay AID1845206 (Molecular Pharmacology Branch, DTP, NCI, 2023):
# pIC50: −log10 of the molar value.
# Tested on: NCI-H1618 multicellular tumor spheroid viability
# Test: Anticancer human tumor NCI-H1618 cell line growth inhibition;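 further: spheroids exposed to agents for 7 days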
# Conditions: for pIC50: curve of first compound; for viability, T/C: stronger effect = lower value
# Description: Multicellular complex tumor spheroid response to DNA repair inhibitors in combination with DNA-damaging drugs
# This study explores the anticancer activities of DNA-damaging drugs and inhibitors of DNA damage repair, both as single agents and in combinations. Complex tumor spheroids comprised of malignant cells, endothelial cells and mesenchymal stem cells served as an in vitro model for human solid tumors. This model system incorporates physiologically relevant features and patient-derived or established malignant cell lines with clinically relevant genetic alterations from many tumor types. Twenty-six patient-derived or established malignant cell lines were evaluated representing sarcoma, melanoma, small cell lung cancer (SCLC), non-small cell lung cancer (NSCLC), as well as bladder, ovarian and pancreatic cancers. The concentration ranges selected for each drug and investigational agent were based upon clinically achievable concentrations if the clinical Cmax of the agent was known.
# Compounds. The drugs and compounds olaparib (NSC753686), talazoparib (NSC767125), berzosertib (NSC777718), elimusertib (NSC800525), nedisertib (NSC802822), VX-984 (NSC792969), AZD-1390 (NSC803789), temozolomide (NSC362856), topotecan (NSC609699), trabectedin (NSC813783), staurosporine (NSC755774), and gemcitabine (NSC613327) were obtained from the National Cancer Institute (NCI) Developmental Therapeutics Program Chemical Repository. The FDA-approved anticancer drug set is available from the Developmental Therapeutics Program at https://dtp.cancer.gov/organization/dscb/obtaining/available_plates.htm. […] The stock solutions were prepared in dimethyl sulfoxide (DMSO, Sigma-Aldrich, St. Louis, MO, cat. D2650) at 400-fold the tested concentration and stored at -70 degrees C. Prior to their use, the stock solutions were diluted in fresh medium and the final DMSO concentration in the assay was 0.25% (v/v). All drugs and investigational agents were tested over a range starting from a high concentration at or near the clinical Cmax and decreasing in half-log increments. If the clinical Cmax for an agent had not been determined, the highest concentration tested was 10 microM.
# Cell Lines. The patient-derived cancer cell (PDC) lines: 156681-154-R-J1-PDC, 283228-195-R-J1-PDC, 287954-098-R-J1-PDC, 292921-168-R-J2-PDC, 349418-098-R-PDC, 425362-245-T-J1-PDC, 556581-035-R-J1-PDC, and BL0293-F563-PDC were received from the NCI Patient-Derived Models Repository (PDMR, https://pdmr.cancer.gov). The established cell lines HS-SY-2 (RRID:CVCL_8719), MPNST, and SYO-1 (RRID:CVCL_7146) were obtained from the Sloan Kettering Institute. The alveolar soft parts sarcoma cell line ASPS-1 (RRID:CVCL_S738) was established at the NCI and grown from internal seed stocks. The following established cell lines were purchased from the American Type Culture Collection (ATCC, Manassas, VA): G-401 (ATCC, cat. CRL-1441, RRID:CVCL_0270), SW982 (ATCC, cat. HTB-93, RRID:CVCL_1734), VA-ES-BJ (ATCC, cat. CRL-2138, RRID:CVCL_1785), NCI-H719 (ATCC, cat. CRL-5837, RRID:CVCL_1582), NCI-H196 (ATCC, cat. CRL-5823, RRID:CVCL_1509), NCI-H841 (ATCC, cat. CRL-5845, RRID:CVCL_1595), NCI-H1618 (ATCC, cat. CRL-5879, RRID:CVCL_1480), NCI-H1876 (ATCC, cat. CRL-5902, RRID:CVCL_1503), DMS 114 (ATCC, cat. CRL-2066; RRID:CVCL_1174), NCI-H211 (ATCC, cat. CRL-5824; RRID:CVCL_1529), and SW 1271 (ATCC, cat. CRL-2177, RRID:CVCL_1716). The small cell lung cancer cell line COR-L88 was purchased from Sigma-Aldrich (cat. 92031917-1VL, RRID:CVCL_1141). The non-small cell lung cancer cell lines NCI-H226 (RRID:CVCL_1544) and NCI-H322M (RRID:CVCL_1557) were established at the NCI and grown from internal seed stocks. Pooled donor human umbilical vein endothelial cells (HUVEC, Lonza, cat. CC-2519) and human mesenchymal stem cells (hMSC, Lonza, cat. PT-2501) were purchased from Lonza (Walkersville, MD).
# Cell Culture. All cells were maintained in an incubator at 37 degrees C and 5% CO2 with 95% humidity. […]
# [1] = second compound 0.003 µM, first compound 0.00949 µM
# [2] = second compound 0.003 µM, first compound 0.03 µM
# [3] = second compound 0.003 µM, first compound 0.0949 µM
# [4] = second compound 0.003 µM, first compound 0.3 µM
# [5] = second compound 0.003 µM, first compound 0.949 µM
# [6] = second compound 0.003 µM, first compound 3 µM
# [7] = second compound 0.00949 µM, first compound 0.00949 µM
# [8] = second compound 0.00949 µM, first compound 0.03 µM
# [9] = second compound 0.00949 µM, first compound 0.0949 µM
# [10] = second compound 0.00949 µM, first compound 0.3 µM
# [11] = second compound 0.00949 µM, first compound 0.949 µM
# [12] = second compound 0.00949 µM, first compound 3 µM
# [13] = second compound 0.03 µM, first compound 0.00949 µM
# [14] = second compound 0.03 µM, first compound 0.03 µM
# [15] = second compound 0.03 µM, first compound 0.0949 µM
# [16] = second compound 0.03 µM, first compound 0.3 µM
# [17] = second compound 0.03 µM, first compound 0.949 µM
# [18] = second compound 0.03 µM, first compound 3 µM
# [19] = second compound 0.0949 µM, first compound 0.00949 µM
# [20] = second compound 0.0949 µM, first compound 0.03 µM
# [21] = second compound 0.0949 µM, first compound 0.0949 µM
# [22] = second compound 0.0949 µM, first compound 0.3 µM
# [23] = second compound 0.0949 µM, first compound 0.949 µM
# [24] = second compound 0.0949 µM, first compound 3 µM
# [25] = second compound 0.3 µM, first compound 0.00949 µM
# [26] = second compound 0.3 µM, first compound 0.03 µM
# [27] = second compound 0.3 µM, first compound 0.0949 µM
# [28] = second compound 0.3 µM, first compound 0.3 µM
# [29] = second compound 0.3 µM, first compound 0.949 µM
# [30] = second compound 0.3 µM, first compound 3 µM
SMILES,pIC50 (second compound 0.003 µM),pIC50 (second compound 0.00949 µM),pIC50 (second compound 0.03 µM),pIC50 (second compound 0.0949 µM),pIC50 (second compound 0.3 µM),"viability, T/C [3]","viability, T/C [4]","viability, T/C [5]","viability, T/C [6]","viability, T/C [9]","viability, T/C [10]","viability, T/C [11]","viability, T/C [12]","viability, T/C [15]","viability, T/C [16]","viability, T/C [17]","viability, T/C [18]","viability, T/C [21]","viability, T/C [22]","viability, T/C [23]",also measured
CNCc1ccc(-c2cc(-c3nc(-c4ccc(S(=O)(=O)C(C)C)cc4)cnc3N)on2)cc1 + CC[C@@]1(O)C(=O)OCc2c1cc1n(c2=O)Cc2cc3c(CN(C)C)c(O)ccc3nc2-1,6.73,> 8.02,> 8.02,> 8.02,> 8.02,61.7%,44.8%,1.59%,0.23%,34.5%,1.73%,0.75%,0.62%,1.54%,1.41%,0.72%,0.23%,1.35%,1.36%,0.81%,"viability, T/C [1]: 95.1%; viability, T/C [2]: 94%; viability, T/C [7]: 20.6%; viability, T/C [8]: 77.9%; viability, T/C [13]: 1.33%; viability, T/C [14]: 15.5%; viability, T/C [19]: 1.38%; viability, T/C [20]: 14%; viability, T/C [24]: 0.45%; viability, T/C [25]: 1.25%; viability, T/C [26]: 1.26%; viability, T/C [27]: 1.42%; viability, T/C [28]: 1.51%; viability, T/C [29]: 17.5%; viability, T/C [30]: 0.43%"
Cc1sc2c(c1C)C(c1ccc(Cl)cc1)=NC(CC(=O)Nc1ccc(O)cc1)c1nnc(C)n1-2 (stereo not given) + CC[C@@]1(O)C(=O)OCc2c1cc1n(c2=O)Cc2cc3c(CN(C)C)c(O)ccc3nc2-1,6.34,7.96,> 8.02,> 8.02,> 8.02,89.1%,61.3%,27.2%,1.67%,29.5%,2.24%,0.92%,0.93%,1.42%,1.1%,0.9%,0.76%,1.55%,0.99%,0.71%,"viability, T/C [1]: 96.6%; viability, T/C [2]: 85.2%; viability, T/C [7]: 55.5%; viability, T/C [8]: 21.2%; viability, T/C [13]: 1.53%; viability, T/C [14]: 17%; viability, T/C [19]: 1.43%; viability, T/C [20]: 1.5%; viability, T/C [24]: 15.8%; viability, T/C [25]: 1.23%; viability, T/C [26]: 1.1%; viability, T/C [27]: 0.98%; viability, T/C [28]: 0.97%; viability, T/C [29]: 0.73%; viability, T/C [30]: 0.63%"
Cn1ncnc1[C@H]1c2n[nH]c(=O)c3cc(F)cc(c23)N[C@@H]1c1ccc(F)cc1 + CC[C@@]1(O)C(=O)OCc2c1cc1n(c2=O)Cc2cc3c(CN(C)C)c(O)ccc3nc2-1,> 8.02,> 8.02,> 8.02,> 8.02,> 8.02,1.47%,1.41%,1.48%,2.21%,1.8%,1.98%,3.83%,1.52%,1.38%,1.56%,1.83%,1.87%,1.43%,1.39%,1.38%,"viability, T/C [1]: 27.3%; viability, T/C [2]: 6.33%; viability, T/C [7]: 1.59%; viability, T/C [8]: 2.38%; viability, T/C [13]: 1.39%; viability, T/C [14]: 3.65%; viability, T/C [19]: 1.47%; viability, T/C [20]: 1.59%; viability, T/C [24]: 1.57%; viability, T/C [25]: 1.23%; viability, T/C [26]: 1.22%; viability, T/C [27]: 1.27%; viability, T/C [28]: 1.22%; viability, T/C [29]: 1.24%; viability, T/C [30]: 1.3%"
O=C(c1cc(Cc2n[nH]c(=O)c3ccccc23)ccc1F)N1CCN(C(=O)C2CC2)CC1 + CC[C@@]1(O)C(=O)OCc2c1cc1n(c2=O)Cc2cc3c(CN(C)C)c(O)ccc3nc2-1,5.90,> 7.02,> 7.02,> 7.02,> 7.02,89%,84%,61.2%,15%,2.05%,2.74%,1.49%,2.37%,2.9%,1.36%,1.85%,1.67%,13.1%,1.67%,2.53%,"viability, T/C (second compound 0.003 µM, first compound 9.49 µM): 3.53%; viability, T/C (second compound 0.003 µM, first compound 30 µM): 3.79%; viability, T/C (second compound 0.00949 µM, first compound 9.49 µM): 9.35%; viability, T/C (second compound 0.00949 µM, first compound 30 µM): 2.81%; viability, T/C (second compound 0.03 µM, first compound 9.49 µM): 2.73%; viability, T/C (second compound 0.03 µM, first compound 30 µM): 2.96%; viability, T/C [24]: 1.83%; viability, T/C (second compound 0.0949 µM, first compound 9.49 µM): 2.3%; viability, T/C (second compound 0.0949 µM, first compound 30 µM): 2.69%; viability, T/C [27]: 1.51%; viability, T/C [28]: 1.22%; viability, T/C [29]: 1.9%; viability, T/C [30]: 1.37%; viability, T/C (second compound 0.3 µM, first compound 9.49 µM): 1.77%; viability, T/C (second compound 0.3 µM, first compound 30 µM): 3.42%"
